From ChEMBL document CHEMBL1130441, “Studies on -lactam antibiotics. Synthesis and antibacterial activity of novel 1-methylcarbapenems related to FR21818: 5-membered ring analogs” (1997)
In brackets after ≈: the same amount, converted by molar mass.

How the values were obtained:
Proteus vulgaris = experiment: In vitro antibacterial activity of compound was measured on Proteus vulgaris IAM 1025; type: functional
[1] = target: Dipeptidase 1 (Homo sapiens) (UniProt P16444); experiment: In vitro rate of hydrolysis by human dehydropeptidase-1 compared to meropenem.
Dipeptidase 1 (Homo sapiens), sequence (P16444 whole entry, looked up): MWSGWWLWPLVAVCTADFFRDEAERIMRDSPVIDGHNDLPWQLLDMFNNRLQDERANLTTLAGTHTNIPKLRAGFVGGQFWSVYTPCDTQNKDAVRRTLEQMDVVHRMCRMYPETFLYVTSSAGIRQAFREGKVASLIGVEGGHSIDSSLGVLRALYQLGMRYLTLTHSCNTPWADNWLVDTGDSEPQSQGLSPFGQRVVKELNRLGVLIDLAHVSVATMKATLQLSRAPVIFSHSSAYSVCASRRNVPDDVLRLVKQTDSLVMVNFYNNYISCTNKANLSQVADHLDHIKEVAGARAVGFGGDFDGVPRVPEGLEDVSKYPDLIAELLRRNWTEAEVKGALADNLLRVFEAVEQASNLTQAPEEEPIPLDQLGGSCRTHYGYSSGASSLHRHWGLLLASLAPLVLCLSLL

Pseudomonas aeruginosa [2] = experiment: In vitro antibacterial activity of compound was measured on Pseudomonas aeruginosa 26; type: functional
Staphylococcus aureus [3] = experiment: In vitro antibacterial activity of compound was measured on Staphylococcus aureus 209P JC-1; type: functional
Pseudomonas aeruginosa [4] = experiment: In vitro antibacterial activity of compound was measured on Pseudomonas aeruginosa IAM 1095; type: functional
Staphylococcus aureus [5] = experiment: In vitro antibacterial activity of compound was measured on Staphylococcus aureus 3004(MRSA); type: functional
Escherichia coli = experiment: In vitro antibacterial activity of compound was measured on Escherichia coli NIHJ JC-2; type: functional
Mus musculus [6] = experiment: Protective activity of compound against lethal systemic infection by Staphylococcus aureus 8008 (MRSA) in ICR mice at 1 hr after sc administration; type: functional
Mus musculus [7] = experiment: Protective activity of compound was measured against lethal systemic infection by Staphylococcus aureus 8008 (MRSA) in ICR mice at 1 hr after subcutaneous administration; type: functional; conditions: sc

SMILES	MIC (Proteus vulgaris) [µg/mL]	DHP-I stability [1]	MIC (Pseudomonas aeruginosa [2]) [µg/mL]	MIC (Staphylococcus aureus [3]) [µg/mL]	MIC (Pseudomonas aeruginosa [4]) [µg/mL]	MIC (Staphylococcus aureus [5]) [µg/mL]	MIC (Escherichia coli) [µg/mL]	ED50 (Mus musculus [6]) [mg/kg]	ED50 (Mus musculus [7]) [mg/kg]
C[C@@H](O)[C@H]1C(=O)N2C(C(=O)O)=C(S[C@@H]3CN[C@H](Cc4cn(C)[n+](C)c4CO)C3)[C@H](C)[C@H]12.[Cl-]	1.56	0.24	0.39	0.05	6.25	6.25	0.39	–	–
C[C@@H](O)[C@H]1C(=O)N2C(C(=O)O)=C(S[C@@H]3CN[C@H](Cc4cn(C)[n+](CCO)c4)C3)[C@H](C)[C@H]12.[Cl-]	1.56	0.2	0.39	0.05	1.56	12.5	0.39	–	–
C[C@@H](O)[C@H]1C(=O)N2C(C(=O)O)=C(S[C@@H]3CN[C@H](Cc4c[n+](CCO)cn4C)C3)[C@H](C)[C@H]12.[Cl-]	1.56	0.25	0.39	0.05	3.13	12.5	0.1	–	–
CC1(C)C[C@@H]1C(=O)N/C(=C\CCCCSC[C@H](N)C(=O)O)C(=O)O [CILASTATIN]	–	–	–	–	–	–	–	7.88	–
C[C@@H](O)[C@H]1C(=O)N2C(C(=O)O)=C(S[C@@H]3CN[C@H](Cc4cc(CO)[n+](C)n4C)C3)[C@H](C)[C@H]12.[Cl-]	–	–	–	–	6.25	–	0.1	–	–
C[C@@H](O)[C@H]1C(=O)N2C(C(=O)O)=C(S[C@@H]3CN[C@H](Cc4cc[n+](CC(N)=O)n4C)C3)[C@H](C)[C@H]12.[Cl-]	0.39	0.35	0.1	< 0.025	3.13	6.25	0.1	–	–
C[C@@H](O)[C@H]1C(=O)N2C(C(=O)O)=C(S[C@@H]3CN[C@H](Cc4c[n+](C)nn4C)C3)[C@H](C)[C@H]12.[Cl-]	0.78	0.32	0.39	0.05	3.13	25	0.1	–	–
C[C@@H](O)[C@H]1C(=O)N2C(C(=O)O)=C(S[C@@H]3CN[C@H](Cc4c[n+](CC(N)=O)cn4C)C3)[C@H](C)[C@H]12.[Cl-]	0.78	0.31	0.2	0.05	3.13	12.5	0.1	–	–
C[C@@H](O)[C@H]1C(=O)N2C(C(=O)O)=C(S[C@@H]3CN[C@H](Cc4cn5[n+](c4)CCC5)C3)[C@H](C)[C@H]12.[Cl-]	–	0.21	–	–	3.13	–	0.1	–	–
C[C@@H](O)[C@H]1C(=O)N2C(C(=O)O)=C(S[C@@H]3CN[C@H](Cc4n(C)cc[n+]4C)C3)[C@H](C)[C@H]12.[Cl-]	0.78	0.3	0.39	0.1	12.5	6.25	0.1	–	–
C[C@@H](O)[C@H]1C(=O)N2C(C(=O)O)=C(S[C@@H]3CN[C@H](Cc4c[n+](C)c(CO)n4C)C3)[C@H](C)[C@H]12.[Cl-]	0.78	0.27	0.2	0.05	1.56	6.25	0.2	–	–
C[C@@H](O)[C@H]1C(=O)N2C(C(=O)O)=C(S[C@@H]3CN[C@H](Cc4cc[n+](CC(=O)O)n4C)C3)[C@H](C)[C@H]12.[Cl-]	–	0.61	–	–	3.13	–	0.05	–	–
C[C@@H](O)[C@H]1C(=O)N2C(C(=O)O)=C(S[C@@H]3CN[C@H](Cc4c(CO)c[n+](C)n4C)C3)[C@H](C)[C@H]12.[Cl-]	0.78	0.28	0.39	0.1	3.13	25	0.2	–	–
CN[C@H](CC(C)C)C(=O)N[C@H]1C(=O)N[C@@H](CC(N)=O)C(=O)N[C@H]2C(=O)N[C@H]3C(=O)N[C@H](C(=O)N[C@H](C(=O)O)c4cc(O)cc(O)c4-c4cc3ccc4O)[C@H](O)c3ccc(c(Cl)c3)Oc3cc2cc(c3O[C@@H]2O[C@H](CO)[C@@H](O)[C@H](O)[C@H]2O[C@H]2C[C@](C)(N)[C@H](O)[C@H](C)O2)Oc2ccc(cc2Cl)[C@H]1O [VANCOMYCIN]	–	–	–	–	–	–	–	–	2.73
C[C@@H](O)[C@H]1C(=O)N2C(C(=O)O)=C(S[C@@H]3CN[C@H](Cc4cn(C)[n+](CC(=O)O)c4)C3)[C@H](C)[C@H]12.[Cl-]	0.78	0.14	0.39	0.1	6.25	12.5	0.1	–	–
C[C@@H](O)[C@H]1C(=O)N2C(C(=O)[O-])=C(SC3Cn4cnc[n+]4C3)[C@H](C)[C@H]12 (some centres undefined) [BIAPENEM]	3.13 (≈ 8.93 µM)	0.15	0.2 (≈ 0.571 µM)	0.05 (≈ 0.143 µM)	1.56 (≈ 4.45 µM)	25 (≈ 71.3 µM)	0.39 (≈ 1.11 µM)	35.2	–
C[C@@H](O)[C@H]1C(=O)N2C(C(=O)O)=C(S[C@@H]3CN[C@H](Cc4c[n+](C)c(C(N)=O)n4C)C3)[C@H](C)[C@H]12.[Cl-]	–	0.3	–	–	1.56	–	0.1	–	–
C[C@@H](O)[C@H]1C(=O)N2C(C(=O)O)=C(S[C@@H]3CN[C@H](Cc4cc[n+](C)n4C)C3)[C@H](C)[C@H]12.[Cl-]	0.78	0.42	0.2	0.05	1.56	6.25	0.2	–	–
C[C@@H](O)[C@H]1C(=O)N2C(C(=O)O)=C(S[C@@H]3CN[C@H](Cc4c[n+](CCO)nn4C)C3)[C@H](C)[C@H]12.[Cl-]	0.78	0.17	0.39	0.1	3.13	25	0.1	–	–
C[C@@H](O)[C@H]1C(=O)N2C(C(=O)O)=C(S[C@@H]3CN[C@H](Cc4cc[n+](CCO)n4C)C3)[C@H](C)[C@H]12.[Cl-]	1.56	0.26	0.2	0.05	6.25	6.25	0.2	–	5.45
C[C@@H](O)[C@H]1C(=O)N2C(C(=O)O)=C(S[C@@H]3CN[C@H](C(=O)N(C)C)C3)[C@H](C)[C@H]12 [MEROPENEM]	0.1 (≈ 0.261 µM)	1	0.2 (≈ 0.522 µM)	0.1 (≈ 0.261 µM)	1.56 (≈ 4.07 µM)	25 (≈ 65.2 µM)	0.025 (≈ 0.0652 µM)	7.88	–
C[C@@H](O)[C@H]1C(=O)N2C(C(=O)O)=C(S[C@@H]3CN[C@H](Cc4c[n+](C)cn4C)C3)[C@H](C)[C@H]12.[Cl-]	0.78	0.41	0.2	0.05	3.13	6.25	0.2	–	–
C[C@@H](O)[C@H]1C(=O)N2C(C(=O)O)=C(S[C@@H]3CN[C@H](Cc4cn(C)[n+](CC(N)=O)c4)C3)[C@H](C)[C@H]12.[Cl-]	0.78	0.29	0.2	< 0.025	3.13	6.25	0.2	–	–
C[C@@H](O)[C@H]1C(=O)N2C(C(=O)O)=C(S[C@@H]3CN[C@H](Cc4cn(C)[n+](C)c4)C3)[C@H](C)[C@H]12.[Cl-]	1.56	0.28	0.39	0.05	3.13	3.13	0.2	–	–
C[C@@H](O)[C@H]1C(=O)N2C(C(=O)O)=C(S[C@@H]3CN[C@H](Cc4n(C)nc[n+]4C)C3)[C@H](C)[C@H]12.[Cl-]	0.78	0.22	1.56	0.1	12.5	12.5	0.2	–	–
